Laboratory results reported in PubChem BioAssay AID248 (DTP/NCI, 2004).
“And” between values parts separate entries of the source, which are not always exact repeats. Equal values may be shown once. Inconclusive results and toxic doses are left out. Cut-off read from the data, not from the text of the source: active = T/C of 150% or more; inactive = T/C below 125%.

System: L1210 leukemia ip in BDF1 mice, survival T/C
Assay: NCI In Vivo Anticancer Drug Screen. Data for tumor model L1210 Leukemia (intraperitoneal) in B6D2F1 (BDF1) mice
Settings: higher = longer survival
How it was run: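 Mice bearing the transplanted tumor received compound or vehicle. Survival of the treated group was divided by that of the vehicle-treated control group to give the ratio.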

[1] = endpoint: mean survival time, dose: 400.0 mg/kg/injection, schedule: Q01DX001 (ip), vehicle: saline with Tween-80
[2] = endpoint: mean survival time, dose: 100.0 mg/kg/injection, schedule: Q01DX001 (ip), vehicle: saline with Tween-80
[3] = endpoint: mean survival time, dose: 200.0 mg/kg/injection, schedule: Q01DX001 (ip), vehicle: saline with Tween-80
[4] = endpoint: mean survival time, dose: 25.0 mg/kg/injection, schedule: Q04DX002 (ip), vehicle: Klucel (hydroxypropylcellulose) (HPC)
[5] = endpoint: mean survival time, dose: 100.0 mg/kg/injection, schedule: Q04DX002 (ip), vehicle: Klucel (hydroxypropylcellulose) (HPC)
[6] = endpoint: mean survival time, dose: 100.0 mg/kg/injection, schedule: Q04DX003 (ip), vehicle: Klucel (hydroxypropylcellulose) (HPC)
[7] = endpoint: mean survival time, dose: 200.0 mg/kg/injection, schedule: Q04DX003 (ip), vehicle: Klucel (hydroxypropylcellulose) (HPC)
[8] = endpoint: mean survival time, dose: 400.0 mg/kg/injection, schedule: Q04DX003 (ip), vehicle: Klucel (hydroxypropylcellulose) (HPC)
[9] = endpoint: mean survival time, dose: 100.0 mg/kg/injection, schedule: Q01DX009 (ip), vehicle: Klucel (hydroxypropylcellulose) (HPC)
[10] = endpoint: mean survival time, dose: 200.0 mg/kg/injection, schedule: Q01DX009 (ip), vehicle: Klucel (hydroxypropylcellulose) (HPC)
[11] = endpoint: mean survival time, dose: 400.0 mg/kg/injection, schedule: Q01DX009 (ip), vehicle: Klucel (hydroxypropylcellulose) (HPC)
[12] = endpoint: mean survival time, dose: 50.0 mg/kg/injection, schedule: Q01DX009 (ip), vehicle: saline with Tween-80
[13] = endpoint: mean survival time, dose: 100.0 mg/kg/injection, schedule: Q01DX009 (ip), vehicle: saline with Tween-80
[14] = endpoint: mean survival time, dose: 100.0 mg/kg/injection, schedule: Q04DX003 (ip), vehicle: saline with Tween-80
[15] = endpoint: mean survival time, dose: 200.0 mg/kg/injection, schedule: Q04DX003 (ip), vehicle: saline with Tween-80
[16] = endpoint: mean survival time, dose: 50.0 mg/kg/injection, schedule: Q04DX003 (ip), vehicle: saline with Tween-80
[17] = endpoint: mean survival time, dose: 200.0 mg/kg/injection, schedule: Q01DX009 (ip), vehicle: saline with Tween-80

Measured: T/C

C=CCSCCC
inactive: endpoint: mean survival time, dose: 100.0 mg/kg/injection, schedule: Q01DX009 (ip), vehicle: saline 90 % of control | endpoint: mean survival time, dose: 100.0 mg/kg/injection, schedule: Q04DX003 (ip), vehicle: saline 96 % of control | endpoint: mean survival time, dose: 200.0 mg/kg/injection, schedule: Q01DX009 (ip), vehicle: saline 90 % of control | endpoint: mean survival time, dose: 200.0 mg/kg/injection, schedule: Q04DX003 (ip), vehicle: saline 104 % of control | endpoint: mean survival time, dose: 400.0 mg/kg/injection, schedule: Q01DX009 (ip), vehicle: saline 90 % of control | endpoint: mean survival time, dose: 400.0 mg/kg/injection, schedule: Q04DX003 (ip), vehicle: saline 91 % of control

CNCCOC
inactive: endpoint: mean survival time, dose: 100.0 mg/kg/injection, schedule: Q04DX002 (ip), vehicle: saline 98 % of control

CN(C)c1ccc(NC(=S)Nc2ccc(N(C)C)cc2)cc1
inactive: [1] 88 % of control

OCc1c2ccccc2cc2ccccc12
inactive: [2] 93 % of control | [3] 87 % of control | [1] 93 % of control

NC(CSS(=O)(=O)O)=NCCc1ccc(O)cc1
inactive: [4] 110 % of control | [5] 90 % of control and 91 % of control

OCC1OC(n2ncc3c(Cl)ccnc32)C(O)C1O (configuration not stated)
inactive: endpoint: mean survival time, dose: 50.0 mg/kg/injection, schedule: Q01DX005 (ip), vehicle: other 91 % of control

COc1ccc(C(=O)CC(C)C(=O)O)c(O)c1C (configuration not stated)
inactive: [6] 95 % of control | [7] 98 % of control | [8] 96 % of control

CCOP(=O)(OCC)C1CC(C(C)C)CCC1C (configuration not stated)
inactive: endpoint: mean survival time, dose: 75.0 mg/kg/injection, schedule: Q01DX001 (ip), vehicle: other 93 % of control | endpoint: mean survival time, dose: 150.0 mg/kg/injection, schedule: Q01DX001 (ip), vehicle: other 98 % of control | endpoint: mean survival time, dose: 300.0 mg/kg/injection, schedule: Q01DX001 (ip), vehicle: other 110 % of control

CC1C(C)N1P(I)(c1ccccc1)(c1ccccc1)c1ccccc1 (configuration not stated)
inactive: endpoint: mean survival time, dose: 2.5 mg/kg/injection, schedule: Q01DX001 (ip), vehicle: carboxymethylcellulose (CMC) 115 % of control

CC(C)CC(N)C(=O)CCl (configuration not stated)
inactive: [4] 108 % of control | endpoint: mean survival time, dose: 50.0 mg/kg/injection, schedule: Q04DX002 (ip), vehicle: Klucel (hydroxypropylcellulose) (HPC) 102 % of control

COC(=O)CC(=O)c1ccc(C)cc1
inactive: [9] 101 % of control | [6] 108 % of control | [10] 95 % of control | [7] 111 % of control | [11] 104 % of control | [8] 95 % of control

O=[N+]([O-])c1ccccc1C=Nc1ccccc1O
inactive: [6] 103 % of control | [7] 97 % of control | [8] 94 % of control

c1cnc2sccc2c1
inactive: [12] 113 % of control | [13] 95 % of control | [14] 102 % of control | [15] 103 % of control

CO[As](OC)c1ccc(N=Nc2ccc(N(C)C)cc2)cc1
inactive: endpoint: mean survival time, dose: 1.56 mg/kg/injection, schedule: Q04DX003 (ip), vehicle: Klucel (hydroxypropylcellulose) (HPC) 100 % of control | endpoint: mean survival time, dose: 3.13 mg/kg/injection, schedule: Q04DX003 (ip), vehicle: Klucel (hydroxypropylcellulose) (HPC) 100 % of control | endpoint: mean survival time, dose: 6.25 mg/kg/injection, schedule: Q04DX003 (ip), vehicle: Klucel (hydroxypropylcellulose) (HPC) 92 % of control

Cc1ccc2ccccc2c1
inactive: [5] 91 % of control | endpoint: mean survival time, dose: 200.0 mg/kg/injection, schedule: Q04DX002 (ip), vehicle: Klucel (hydroxypropylcellulose) (HPC) 95 % of control

Cc1ccc2cccc(CC(=O)NN)c2c1
inactive: endpoint: mean survival time, dose: 50.0 mg/kg/injection, schedule: Q01DX001 (ip), vehicle: saline with Tween-80 92 % of control | [12] 102 % of control | [16] 92 % of control | [2] 92 % of control | [13] 102 % of control | endpoint: mean survival time, dose: 100.0 mg/kg/injection, schedule: Q04DX002 (ip), vehicle: saline with Tween-80 93 % of control | [14] 90 % of control | [3] 103 % of control | [17] 111 % of control | endpoint: mean survival time, dose: 200.0 mg/kg/injection, schedule: Q04DX002 (ip), vehicle: saline with Tween-80 98 % of control | [15] 89 % of control

COc1cccc2c1C(=O)c1c(O)c3c(c(O)c1C2=O)C[C@@](O)(C(C)=O)C[C@@H]3OC1CC(NC(C)=O)C(O)C(C)O1 (some centres not stated)
inactive: endpoint: mean survival time, dose: 0.63 mg/kg/injection, schedule: Q01DX001 (ip), vehicle: other 101 % of control | endpoint: mean survival time, dose: 1.25 mg/kg/injection, schedule: Q01DX001 (ip), vehicle: other 103 % of control | endpoint: mean survival time, dose: 1.9 mg/kg/injection, schedule: Q01DX009 (ip), vehicle: saline 103 % of control | endpoint: mean survival time, dose: 2.5 mg/kg/injection, schedule: Q01DX001 (ip), vehicle: other 107 % of control | endpoint: mean survival time, dose: 3.8 mg/kg/injection, schedule: Q01DX009 (ip), vehicle: saline 103 % of control | endpoint: mean survival time, dose: 5.0 mg/kg/injection, schedule: Q01DX001 (ip), vehicle: other 106 % of control | endpoint: mean survival time, dose: 7.5 mg/kg/injection, schedule: Q01DX009 (ip), vehicle: saline 111 % of control | endpoint: mean survival time, dose: 10.0 mg/kg/injection, schedule: Q01DX001 (ip), vehicle: other 111 % of control | endpoint: mean survival time, dose: 10.0 mg/kg/injection, schedule: Q01DX001 (ip), vehicle: saline 114 % of control | endpoint: mean survival time, dose: 20.0 mg/kg/injection, schedule: Q01DX001 (ip), vehicle: other 123 % of control | endpoint: mean survival time, dose: 20.0 mg/kg/injection, schedule: Q01DX001 (ip), vehicle: saline 111 % of control | endpoint: mean survival time, dose: 40.0 mg/kg/injection, schedule: Q01DX001 (ip), vehicle: other 122 % of control | endpoint: mean survival time, dose: 40.0 mg/kg/injection, schedule: Q01DX001 (ip), vehicle: saline 124 % of control | endpoint: mean survival time, dose: 160.0 mg/kg/injection, schedule: Q01DX001 (ip), vehicle: saline 122 % of control | endpoint: mean survival time, dose: 320.0 mg/kg/injection, schedule: Q01DX001 (ip), vehicle: saline 113 % of control | endpoint: median survival time, dose: 75.0 mg/kg/injection, schedule: Q01DX001 (ip), vehicle: propolene glycol 122 % of control and 124 % of control | endpoint: median survival time, dose: 400.0 mg/kg/injection, schedule: Q01DX001 (ip), vehicle: propolene glycol 98 % of control and 88 % of control

NC(=O)CSc1nnc(SCC(N)=O)s1
inactive: [6] 106 % of control | [7] 101 % of control | [8] 90 % of control

CC1=C2CC[C@H]3[C@@H]4CC[C@H](O)[C@@]4(C)CC[C@@H]3[C@@]2(C)CCC1=O
inactive: endpoint: mean survival time, dose: 100.0 mg/kg/injection, schedule: Q01DX001 (sc), vehicle: steriod suspending solution 98 % of control | endpoint: mean survival time, dose: 200.0 mg/kg/injection, schedule: Q01DX001 (sc), vehicle: steriod suspending solution 98 % of control | endpoint: mean survival time, dose: 400.0 mg/kg/injection, schedule: Q01DX001 (sc), vehicle: steriod suspending solution 96 % of control | endpoint: mean survival time, dose: 800.0 mg/kg/injection, schedule: Q01DX001 (sc), vehicle: steriod suspending solution 96 % of control

CC1(C)CN(Cc2ccccc2)C(C)(C)CN1N
inactive: endpoint: mean survival time, dose: 6.25 mg/kg/injection, schedule: Q01DX009 (ip), vehicle: saline with Tween-80 96 % of control | endpoint: mean survival time, dose: 12.5 mg/kg/injection, schedule: Q01DX009 (ip), vehicle: saline with Tween-80 100 % of control | endpoint: mean survival time, dose: 25.0 mg/kg/injection, schedule: Q01DX009 (ip), vehicle: saline with Tween-80 102 % of control | endpoint: mean survival time, dose: 25.0 mg/kg/injection, schedule: Q04DX003 (ip), vehicle: saline with Tween-80 105 % of control | [16] 102 % of control | [14] 113 % of control

Cc1ccc(NC(=O)CCC(=O)O)cc1Cl
inactive: [9] 102 % of control | [10] 92 % of control | [11] 89 % of control

O=C(c1ccc(O)cc1)c1ccc(O)cc1O
inactive: endpoint: mean survival time, dose: 100.0 mg/kg/injection, schedule: Q01DX009 (ip), vehicle: saline sonified 93 % of control | endpoint: mean survival time, dose: 200.0 mg/kg/injection, schedule: Q01DX009 (ip), vehicle: saline sonified 98 % of control | endpoint: mean survival time, dose: 400.0 mg/kg/injection, schedule: Q01DX009 (ip), vehicle: saline sonified 98 % of control

O=C(CCl)NC(CO)C(=O)O (configuration not stated)
inactive: [13] 89 % of control | [14] 103 % of control | [17] 87 % of control | [15] 94 % of control
